These results are taken from patent publication US9403801B2 (Calitor Sciences, LLC, priority 2014, dated 2016).

The target in one data set is JAK1 (h) (Homo sapiens (Human), UniProt P23458). Briefly: JAK1 kinase assay (33P-ATP filter binding, Millipore). Format: biochemical. On the procedure:
(§1) Kinase assays can be performed by measurement of incorporation of γ-^33P ATP into immobilized myelin basic protein (MBP). High binding white 384 well plates (Greiner) are coated with MBP (Sigma #M−1891) by incubation of 60 μL/well of 20 μg/mL MBP in Tris-buffered saline (TBS; 50 mM Tris pH 8.0, 138 mM NaCl, 2.7 mM KCl) for 24 h at 4° C. Plates are washed 3× with 100 μL TBS. Kinase reactions are carried out in a total volume of 34 μL in kinase buffer (5 mM Hepes pH 7.6, 15 mM NaCl, 0.01% bovine gamma globulin (Sigma #I-5506), 10 mM MgCl2, 1 mM DTT, 0.02% TritonX-100). Compound dilutions are performed in DMSO and added to assay wells to a final DMSO concentration of 1%. Each data point is measured in duplicate, and at least two duplicate assays are performed for each individual compound determination. Enzyme is added to final concentrations of 10 nM or 20 nM, for example. A mixture of unlabeled ATP and γ-^33P ATP is added to start the reaction (2×10^6 cpm of γ-^33P ATP per well (3000 Ci/mmole) and 10 μM unlabeled ATP, typically. The reactions are carried out for 1 h at room temperature with shaking. Plates are washed 7× with TBS, followed by the addition of 50 μL/well scintillation fluid (Wallac). Plates are read using a Wallac Trilux counter. This is only one format of such assays; various other formats are possible, as known to one skilled in the art.
(§2) The above assay procedure can be used to determine the IC50 for inhibition and/or the inhibition constant, Ki. The IC50 is defined as the concentration of compound required to reduce the enzyme activity by 50% under the condition of the assay. The IC50 value is estimated by preparing a 10 point curve using a 1/2 log dilution series (for example, a typical curve may be prepared using the following compound concentrations: 3 μM, 1 μM, 0.3 μM, 0.1 μM, 0.03 μM, 0.01 μM, 0.003 μM, 0.001 μM, 0.0003 μM and 0 μM).
(§3) The kinase assays described herein were performed at Millipore UK Ltd, Dundee Technology Park, Dundee DD2 1SW, UK.

The next data set has as its target JAK2 (h) (Homo sapiens (Human), UniProt O60674). Kind of data set: JAK2 kinase assay (33P-ATP filter binding, Millipore). The data set is classed as biochemical. On the procedure:
as §1, §2, §3

Data set [1] in a line: Compound stability in human liver microsomes. The data set is classed as in vitro ADME. The following applies: for half-life at 5 μM: compound 5 μM, NADPH 1.0 mM, 37° C.; for CLint scaled at 5 μM: in vivo CLint extrapolated. On the procedure: (§4) Human or rat liver microsomes incubations were conducted in duplicate in polypropylene tubes. The typical incubation mixtures consisted of human or rat liver microsomes (0.5 mg protein/mL), compounds of interest (5 μM) and NADPH (1.0 mM) in a total volume of 200 μL potassium phosphate buffer (PBS, 100 mM, pH 7.4). Compounds were dissolved in DMSO and diluted with PBS such that the final concentration of DMSO was 0.05%. The enzymatic reactions were commenced with the addition of protein after a 3-min preincubation and incubated in a water bath open to the air at 37° C. Reactions were terminated at various time points (0, 5, 10, 15, 30, 60 min) by adding equal volume of ice-cold acetonitrile. The samples were stored at −80° C. until LC/MS/MS assays.
(§5) The concentrations of compounds in the incubation mixtures of human or rat liver microsomes were determined by a LC/MS/MS method. The ranges of the linearity in the concentration range were determined for each tested compounds.
(§6) A parallel incubation was performed using denatured microsomes as the negative control, and reactions were terminated at various time points (0, 15, 60 min) after incubation at 37° C.
(§7) Dextromethorphan (70 μM) was selected as the positive control, and reactions were terminated at various time points (0, 5, 10, 15, 30, 60 min) after incubation at 37° C. Both positive and negative control samples were included in each assay to ensure the integrity of the microsomal incubation system.
(§8) The concentrations of compounds in human or rat liver microsome incubations were plotted as a percentage of the relevant zero time point control for each reaction. The in vivo CLint were extrapolated (ref.: Naritomi, Y.; Terashita, S.; Kimura, S.; Suzuki, A.; Kagayama, A.; and Sugiyama, Y.; Prediction of human hepatic clearance from in vivo animal experiments and in vitro metabolic studies with liver microsomes from animals and humans. Drug Metab. Dispos., 2001, 29: 1316-1324).

Data set [2] is described as follows: Pharmacokinetics after intravenous and oral administration in rats. Format: in vivo. The following applies: for Clearance (CL) after iv dosing / AUC(0-t) / half-life / Vd: dose 1 mg/kg (Ex. 27: 0.72 mg/kg), iv dosing; for F: oral bioavailability; for AUC(0-t) / half-life / Vd: rat, plasma; for Vd: read-out: Vss. On the procedure:
The LC/MS/MS system used in the analysis consists of an Agilent 1200 Series vacuum degasser, binary pump, well-plate autosampler, thermostatted column compartment, the Agilent G6430 Triple Quadrupole Mass Spectrometer with an electrosprayionization (ESI) source. Quantitative analysis was carried out using MRM mode. The parameters for MRM transitions are in the Table A.
An Agilent XDB-C18, 2.1×30 mm, 3.5 μM column was used for the analysis. 5 μL of the samples were injected. Analysis condition: The mobile phase was 0.1% formic acid in water (A) and 0.1% formic acid in methanol (B). The flow rate was 0.4 mL/min. And the gradient of Mobile phase was in the Table B.
Alternatively, an Agilent 6330 series LC/MS/MS spectrometer equipped with G1312A binary pumps, a G1367A autosampler and a G1314C UV detector were used in the analysis. An ESI source was used on the LC/MS/MS spectrometer. The analysis was done in positive ion mode as appropriate and the MRM transition for each analyte was optimized using standard solution. A Capcell MP-C18 100×4.6 mm I.D., […] column (Phenomenex, Torrance, Calif., USA) was used during the analysis. The mobile phase was 5 mM ammonia acetate, 0.1% MeOH in water (A): 5 mM ammonia acetate, 0.1% MeOH in acetonitrile (B) (70:30, v/v). The flow rate was 0.6 mL/min. Column was maintained at ambient temperature. 20 μL of the samples were injected.
The compounds disclosed herein are assessed in pharmacokinetic studies in mice, rats, dogs or monkeys. The compounds are administered as a water solution, 2% HPMC+1% TWEEN®80 in water solution, 5% DMSO+5% solution in saline, 4% MC suspension or capsule. For the intravenous administration, the animals are generally given at 1 or 2 mg/kg dose. For the oral (p.o.) dosing, mice and rats are generally given 5 or 10 mg/kg dose, and dogs and monkeys are generally given 10 mg/kg dose. The blood samples (0.3 mL) are drawn at 0.25, 0.5, 1.0, 2.0, 3.0, 4.0, 6.0, 8.0, 12 and 24 h time points or 0.083, 0.25, 0.5, 1.0, 2.0, 4.0, 6.0, 8.0 and 24 h time points and centrifuged at 3,000 or 4000 rpm for 2 to 10 min. The plasma solutions are collected, and stored at −20° C. or −70° C. until analyzed by LC/MS/MS as described above.

Data set [3] in a line: Compound stability in rat liver microsomes. Conditions: for half-life at 5 μM: compound 5 μM, NADPH 1.0 mM, 37° C.; for CLint scaled at 5 μM: in vivo CLint extrapolated. Format: in vitro ADME. On the procedure:
as §4, §5, §6, §7, §8

Setting [4] is: pH 7.4, Human liver microsomes 0.5 mg protein/mL.
The mark [5] stands for this setting: pH 7.4, Rat liver microsomes 0.5 mg protein/mL.

Sequence of JAK2 (h) (O60674 whole entry): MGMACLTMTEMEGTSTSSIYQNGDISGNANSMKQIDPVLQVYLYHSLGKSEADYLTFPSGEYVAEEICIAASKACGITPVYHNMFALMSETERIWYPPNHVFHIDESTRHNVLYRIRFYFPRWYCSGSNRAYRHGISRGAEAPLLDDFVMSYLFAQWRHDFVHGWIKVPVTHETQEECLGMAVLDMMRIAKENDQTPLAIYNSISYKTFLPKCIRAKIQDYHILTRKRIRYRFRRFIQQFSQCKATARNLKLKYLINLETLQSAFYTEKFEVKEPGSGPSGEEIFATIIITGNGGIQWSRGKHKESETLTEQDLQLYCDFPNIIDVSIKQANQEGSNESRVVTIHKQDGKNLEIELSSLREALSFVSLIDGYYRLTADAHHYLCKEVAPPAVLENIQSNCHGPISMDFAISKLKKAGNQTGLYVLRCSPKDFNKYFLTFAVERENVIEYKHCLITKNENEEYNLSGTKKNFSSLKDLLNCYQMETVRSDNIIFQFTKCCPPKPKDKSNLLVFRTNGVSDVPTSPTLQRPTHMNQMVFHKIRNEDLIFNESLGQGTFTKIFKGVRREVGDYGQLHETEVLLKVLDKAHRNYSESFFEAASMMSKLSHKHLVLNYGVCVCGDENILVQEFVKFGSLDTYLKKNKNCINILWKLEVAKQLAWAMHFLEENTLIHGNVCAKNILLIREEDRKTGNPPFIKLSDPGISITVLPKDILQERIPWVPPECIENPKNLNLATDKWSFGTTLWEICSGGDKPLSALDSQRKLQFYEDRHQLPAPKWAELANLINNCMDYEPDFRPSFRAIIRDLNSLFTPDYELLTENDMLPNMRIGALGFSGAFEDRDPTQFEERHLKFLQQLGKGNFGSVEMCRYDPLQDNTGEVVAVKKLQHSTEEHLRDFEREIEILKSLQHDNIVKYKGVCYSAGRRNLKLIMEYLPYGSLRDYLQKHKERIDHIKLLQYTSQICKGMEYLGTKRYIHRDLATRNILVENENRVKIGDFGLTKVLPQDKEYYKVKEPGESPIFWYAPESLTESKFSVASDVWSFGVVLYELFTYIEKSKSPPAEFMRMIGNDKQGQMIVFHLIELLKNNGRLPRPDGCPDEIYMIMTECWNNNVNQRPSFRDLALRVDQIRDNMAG
Sequence of JAK1 (h) (P23458 whole entry): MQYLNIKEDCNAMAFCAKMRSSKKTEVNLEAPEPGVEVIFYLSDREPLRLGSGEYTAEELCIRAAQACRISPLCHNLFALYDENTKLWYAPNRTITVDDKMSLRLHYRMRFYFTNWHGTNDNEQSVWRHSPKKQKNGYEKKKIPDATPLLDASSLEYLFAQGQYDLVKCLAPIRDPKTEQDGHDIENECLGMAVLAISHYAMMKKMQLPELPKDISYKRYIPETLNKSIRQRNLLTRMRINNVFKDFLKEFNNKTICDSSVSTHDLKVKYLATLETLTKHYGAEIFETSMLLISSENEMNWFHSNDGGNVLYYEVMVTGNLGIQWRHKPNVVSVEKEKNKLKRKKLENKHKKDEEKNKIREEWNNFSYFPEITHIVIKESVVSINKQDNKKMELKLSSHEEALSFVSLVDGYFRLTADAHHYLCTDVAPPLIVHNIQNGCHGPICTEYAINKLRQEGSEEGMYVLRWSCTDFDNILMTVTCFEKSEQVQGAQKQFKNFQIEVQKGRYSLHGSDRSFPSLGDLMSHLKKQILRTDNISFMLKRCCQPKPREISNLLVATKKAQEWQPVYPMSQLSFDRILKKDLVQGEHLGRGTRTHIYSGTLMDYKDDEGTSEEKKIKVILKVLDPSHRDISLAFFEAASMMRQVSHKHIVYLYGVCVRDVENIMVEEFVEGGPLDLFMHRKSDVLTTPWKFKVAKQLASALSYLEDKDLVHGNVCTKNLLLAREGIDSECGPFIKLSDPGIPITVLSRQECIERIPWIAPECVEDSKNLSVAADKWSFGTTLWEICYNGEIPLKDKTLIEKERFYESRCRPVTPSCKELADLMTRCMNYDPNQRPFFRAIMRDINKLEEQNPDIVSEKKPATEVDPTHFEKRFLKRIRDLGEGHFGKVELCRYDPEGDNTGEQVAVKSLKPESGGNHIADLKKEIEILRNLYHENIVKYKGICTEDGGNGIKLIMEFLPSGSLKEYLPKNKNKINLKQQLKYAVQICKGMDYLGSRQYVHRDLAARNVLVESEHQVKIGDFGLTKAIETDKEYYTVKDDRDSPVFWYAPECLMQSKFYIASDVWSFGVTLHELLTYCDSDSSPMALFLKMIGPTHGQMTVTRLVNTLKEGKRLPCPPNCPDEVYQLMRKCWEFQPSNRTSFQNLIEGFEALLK

As to `Cn1cnc(Nc2ncc(Cl)c(NC3CC4CN(C(=O)CC#N)CC4C3)n2)c1` (stereo not shown) [Ex. 41], the results for the IC50 at JAK1 (h) and on JAK2 (h) were 20 nM and 371 nM, respectively.

`Cn1cc(Nc2ncc(Cl)c(NC3CCC4(CCNC4)CC3)n2)cn1` (single isomer, unassigned) [Ex. 13.3B, 5-chloro-N^2-(1-methyl-1H-pyrazol-4-yl)-N^4-(2-azaspiro[4.5]decan-8-yl)pyrimidine-2,4-diamine]: the IC50 at JAK1 (h) came out at 2 nM; on JAK2 (h) it was 14 nM.

As for `N#CCC(=O)N1CCC2(CCC(Nc3nc(Nc4cnn(CC5CC5)c4)ncc3Cl)CC2)CC1` [Ex. 48, 3-(9-((5-chloro-2-((1-(cyclopropylmethyl)-1H-pyrazol-4-yl)amino)pyrimidin-4-yl)amino)-3-azaspiro[5.5]undecan-3-yl)-3-oxopropanenitrile], the IC50 on JAK1 (h) was 0.4 nM. Moreover, the half-life at 5 μM in data set [1] (human, liver microsomes, pH 7.4, Human liver microsomes 0.5 mg protein/mL) was 47.6 min. Also, the CLint scaled at 5 μM in data set [1] (human, liver microsomes, pH 7.4, Human liver microsomes) is 36.5 mL/min/kg. In data set [2], the “Clearance (CL) after iv dosing” value was 66.2 mL/min/kg, the F is 13.6%, the AUC(0-t) was 252 ng·h/mL and the half-life was 43.8 min. In addition, the Vd in data set [2] is 3.41 L/kg. Also, the half-life at 5 μM in data set [3] (rat, liver microsomes, pH 7.4, Rat liver microsomes 0.5 mg protein/mL) amounted to 24.3 min. Further, in data set [3] (rat, liver microsomes, pH 7.4, Rat liver microsomes), the CLint scaled at 5 μM is 102 mL/min/kg.

The molecule `Cc1cnc(Nc2cnn(C)c2)nc1NC1CC2CN(S(C)(=O)=O)CC2C1` (stereo not shown) [Ex. 62, 5-methyl-N^2-(1-methyl-1H-pyrazol-4-yl)-N^4-(2-(methylsulfonyl)octahydrocyclopenta[c]pyrrol-5-yl)pyrimidine-2,4-diamine] gave an IC50 on JAK1 (h) of 4 nM. The molecule also yielded a half-life at 5 μM in data set [1] (setting [4]) of 271 min. The CLint scaled at 5 μM in data set [1] (pH 7.4, Human liver microsomes) was 6.41 mL/min/kg. For the same molecule, in data set [2], the “Clearance (CL) after iv dosing” value turned out to be 82.8 mL/min/kg, the F is recorded as 29.6%, the AUC(0-t) came out at 184 ng·h/mL and the half-life was 48.6 min. Further, in data set [2], the Vd is 5.43 L/kg. The half-life at 5 μM in data set [3] (setting [5]) was found to be 81.1 min. In data set [3] (pH 7.4, Rat liver microsomes), the CLint scaled at 5 μM is 30.6 mL/min/kg.

With `Cn1cc(Nc2ncc(Cl)c(NC3CCC4(CC3)CCN(C(=O)CC#N)CC4)n2)cn1` [Ex. 26, 3-(9-((5-chloro-2-((1-methyl-1H-pyrazol-4-yl)amino)pyrimidin-4-yl)amino)-3-azaspiro[5.5]undecan-3-yl)-3-oxopropanenitrile], the IC50 at JAK1 (h) is 2 nM; on JAK2 (h), 6 nM.

As to `CN(c1nc(Nc2cnn(C)c2)ncc1Cl)C1CCC2(CCCN(C(=O)CC#N)C2)C1` (stereo not shown), the IC50 at JAK1 (h) came to 3 nM; on JAK2 (h), 7 nM.

The molecule `Cc1c(Nc2ncc(Cl)c(NC3CC4CN(C(=O)CC#N)CC4C3)n2)cnn1C` (stereo not shown) [Ex. 66, 3-(5-((5-chloro-2-((1,5-dimethyl-1H-pyrazol-4-yl)amino)pyrimidin-4-yl)amino)hexahydrocyclopenta[c]pyrrol-2(1H)-yl)-3-oxopropanenitrile] gave an IC50 at JAK1 (h) of 7 nM. In data set [1] (setting [4]), this molecule registered a half-life at 5 μM of 81.5 min. In addition, in data set [1] (pH 7.4, Human liver microsomes), the CLint scaled at 5 μM is 21.3 mL/min/kg. For the same molecule, in data set [2], the “Clearance (CL) after iv dosing” value amounted to 81.8 mL/min/kg, the F came to 21.0%, the AUC(0-t) is 201 ng·h/mL and the half-life is 16.2 min. Moreover, the Vd in data set [2] was 2.28 L/kg. Also, the half-life at 5 μM in data set [3] (setting [5]) turned out to be 21.2 min. Further, in data set [3] (pH 7.4, Rat liver microsomes), the CLint scaled at 5 μM was 117 mL/min/kg.

On to `Cn1nc(C2CC2)cc1Nc1ncc(Cl)c(NC2CC3CN(C(=O)CC#N)CC3C2)n1` (stereo not shown) [Ex. 56, 3-(5-((5-chloro-2-((3-cyclopropyl-1-methyl-1H-pyrazol-5-yl)amino)pyrimidin-4-yl)amino)hexahydrocyclopenta[c]pyrrol-2(1H)-yl)-3-oxopropanenitrile], for which the IC50 at JAK1 (h) was determined as 5 nM. Further, in data set [1] (setting [4]), the half-life at 5 μM is 37.6 min. Besides, the CLint scaled at 5 μM in data set [1] (pH 7.4, Human liver microsomes) was 46.2 mL/min/kg. For the same molecule, in data set [2], the “Clearance (CL) after iv dosing” value turned out to be 36.3 mL/min/kg, the F is recorded as 31.3%, the AUC(0-t) turned out to be 459 ng·h/mL and the half-life was 32.4 min. Besides, the Vd in data set [2] amounted to 0.95 L/kg. Further, in data set [3] (setting [5]), the half-life at 5 μM turned out to be 41.4 min. Moreover, in data set [3] (pH 7.4, Rat liver microsomes), the CLint scaled at 5 μM was 60 mL/min/kg.

Turning to `N#CCC(=O)N1CC2CC(Nc3nc(Nc4cnn(CCO)c4)ncc3Cl)CC2C1` (stereo not shown) [Ex. 44, 3-(5-((5-chloro-2-((1-(2-hydroxyethyl)-1H-pyrazol-4-yl)amino)pyrimidin-4-yl)amino)hexahydrocyclopenta[c]pyrrol-2(1H)-yl)-3-oxopropanenitrile], the IC50 at JAK1 (h) was 57 nM. Also, in data set [1] (setting [4]), the half-life at 5 μM was 243 min. In addition, the CLint scaled at 5 μM in data set [1] (pH 7.4, Human liver microsomes) is 7.15 mL/min/kg. Also, in data set [2], the “Clearance (CL) after iv dosing” value was found to be 49.3 mL/min/kg, the F turned out to be 12.0%, the AUC(0-t) stood at 343 ng·h/mL and the half-life is 33 min. Besides, the Vd in data set [2] came to 1.09 L/kg. Besides, the half-life at 5 μM in data set [3] (setting [5]) was determined as 398 min. For the same molecule, in data set [3] (pH 7.4, Rat liver microsomes), the CLint scaled at 5 μM is 6.24 mL/min/kg.

What is called IC50 is the concentration that inhibits the measured activity by half. Low readings indicate higher potency, high ones lower potency. What is called half-life is the time in which the quantity being followed falls by half. Read a high half-life as slow decline. The CLint scaled is the rate of metabolic loss divided by the concentration. Broadly, the AUC(0-t) is the area under the concentration-time curve up to a stated or last time point. A high value points to more exposure.
